From ChEMBL document CHEMBL5543108, “Structure-based design and synthesis of BML284 derivatives: A novel class of colchicine-site noncovalent tubulin degradation agents” (Eur J Med Chem, 2024)
Where a name gives a salt, the structure may show the parent alone. Calls of active or inactive are those of the source. The calls are words filed in the database; no cut-off is given here.

Tests used:
[1] = system: HCT-116; assay: cells; conditions: Homo sapiens, HCT-116, 72 h
Description: Antiproliferative activity against human HCT-116 cells assessed as reduction in cell viability measured after 72 hrs

[2] = system: MOLM-13; assay: Antiproliferative activity against human MOLM-13 cells assessed as reduction in cell viability measured after 72 hrs; type: functional, cell-based; conditions: MOLM-13, 72 h
[3] = system: HeLa; assay: Antiproliferative activity against human HeLa cells assessed as reduction in cell viability measured after 72 hrs; type: functional, cell-based
[4] = system: K562; assay: Antiproliferative activity against human K562 cells assessed as reduction in cell viability measured after 72 hrs; type: functional, cell-based; conditions: K562, 72 h
[5] = system: MCF7; assay: cells; conditions: Homo sapiens, MCF7, 72 h
Description: Antiproliferative activity against human MCF7 cells assessed as reduction in cell viability measured after 72 hrs

[6] = target: T1, Tubulin (Homo sapiens) (UniProt P68371+Q9H4B7+P0DPH7+P68366+Q13509+Q71U36+P04350+Q3ZCM7+P07437+P68363+Q9BQE3+Q6PEY2+Q13885+Q9BVA1+Q9BUF5); assay: Induction of tubulin degradation in human HeLa cells at 50 uM measured after 24 hrs by immunoblot analysis; type: cell-based
[7] = target: T1, Tubulin (Homo sapiens); assay: Induction of tubulin degradation in human HeLa cells measured after 24 hrs by immunoblot analysis; type: cell-based; conditions: dose <= 50.0 µM
[8] = system: NCI/ADR-RES; assay: Antiproliferative activity against human MCF7ADR cells assessed as reduction in cell viability measured after 72 hrs; type: functional, cell-based

Structure (SMILES)	IC50 [1]	IC50 [2]	IC50 [3]	IC50 [4]	IC50 [5]	Activity [6]	Activity [7]	IC50 [8]
Nc1nc(NCc2ccc3c(c2)OCO3)cc(-c2cccc(-c3ccccc3)c2)n1	> 2 µM	> 2 µM	> 2 µM	> 2 µM	> 2 µM	–	–	–
Nc1nc(NCc2ccc3c(c2)OCO3)cc(-c2cccc(OCc3ccccc3)c2)n1	1.05 µM	1.01 µM	> 2 µM	0.74 µM	> 2 µM	–	–	–
COc1cccc(-c2cc(NCc3cc(F)cc(F)c3)nc(N)n2)c1	0.45 µM	0.22 µM	0.61 µM	0.35 µM	0.62 µM	–	–	–
COc1cccc(-c2cc(NCc3cc(OC)c(OC)c(OC)c3)nc(N)n2)c1	0.16 µM	0.11 µM	0.33 µM	0.28 µM	0.28 µM	–	–	–
COc1ccc(CNc2cc(-c3cccc(OC)c3)nc(N)n2)cc1	0.52 µM	0.12 µM	0.12 µM	0.13 µM	0.62 µM	–	–	–
COc1cccc(-c2cc(NCc3ccc(OC)c(OC)c3)nc(N)n2)c1	0.03 µM	0.03 µM	0.06 µM	0.07 µM	0.04 µM	–	–	–
Nc1nc(NCc2ccc3c(c2)OCO3)cc(-c2ccc3c(c2)CCN3)n1	0.3 µM	0.09 µM	0.12 µM	0.02 µM	0.64 µM	–	–	–
CC(C)c1cccc(-c2cc(NCc3ccc4c(c3)OCO4)nc(N)n2)c1	> 2 µM	> 2 µM	> 2 µM	> 2 µM	> 2 µM	–	–	–
C=CCN(Cc1ccc2c(c1)OCO2)c1cc(-c2cccc(OC)c2)nc(N)n1	0.097 µM	0.06 µM	0.11 µM	0.06 µM	0.06 µM	–	–	–
CC(=O)Nc1cccc(-c2cc(NCc3ccc4c(c3)OCO4)nc(N)n2)c1	> 2 µM	> 2 µM	> 2 µM	> 2 µM	> 2 µM	–	–	–
CC1(C)c2ccccc2-c2ccc(-c3cc(NCc4ccc5c(c4)OCO5)nc(N)n3)cc21	> 2 µM	> 2 µM	> 2 µM	> 2 µM	> 2 µM	–	–	–
CN(C)c1cccc(-c2cc(NCc3ccc4c(c3)OCO4)nc(N)n2)c1	0.55 µM	0.36 µM	0.28 µM	0.3 µM	0.53 µM	–	–	–
COc1cccc(-c2cc(N3CCc4cc(OC)c(OC)cc4C3)nc(N)n2)c1	0.21 µM	0.17 µM	0.23 µM	0.33 µM	0.22 µM	–	–	–
CC(C)c1ccc(-c2cc(NCc3ccc4c(c3)OCO4)nc(N)n2)cc1	> 2 µM	> 2 µM	> 2 µM	> 2 µM	> 2 µM	–	–	–
Nc1nc(NCc2ccc3c(c2)OCO3)cc(-c2ccc(-c3ccccc3)cc2)n1	> 2 µM	> 2 µM	> 2 µM	> 2 µM	> 2 µM	–	–	–
COc1cc(-c2cc(NCc3ccc4c(c3)OCO4)nc(N)n2)cc(OC)c1OC	> 2 µM	> 2 µM	> 2 µM	> 2 µM	> 2 µM	–	–	–
Nc1nc(NCc2ccc3c(c2)OCO3)cc(-c2ccc3ccccc3c2)n1	1.67 µM	> 2 µM	> 2 µM	1.82 µM	> 2 µM	–	–	–
CC(=O)c1cccc(-c2cc(NCc3ccc4c(c3)OCO4)nc(N)n2)c1	> 2 µM	> 2 µM	> 2 µM	> 2 µM	> 2 µM	–	–	–
Nc1nc(NCc2ccc3c(c2)OCO3)cc(-c2ccc3c(c2)OCO3)n1	0.39 µM	0.11 µM	0.18 µM	0.07 µM	1.21 µM	–	–	–
COc1cccc(-c2cc(NCc3cccc(F)c3)nc(N)n2)c1	0.16 µM	0.12 µM	0.44 µM	0.32 µM	0.36 µM	–	–	–
COc1ccc(-c2cc(NCc3ccc4c(c3)OCO4)nc(N)n2)cc1OC	> 2 µM	> 2 µM	> 2 µM	> 2 µM	> 2 µM	–	–	–
COc1cc(OC)cc(-c2cc(NCc3ccc4c(c3)OCO4)nc(N)n2)c1	0.33 µM	0.06 µM	0.18 µM	0.06 µM	0.35 µM	–	–	–
Cn1cc2c(-c3cc(NCc4ccc5c(c4)OCO5)nc(N)n3)cccc2n1	> 2 µM	> 2 µM	> 2 µM	> 2 µM	> 2 µM	–	–	–

Structure (SMILES)	IC50 [1]	IC50 [2]	IC50 [3]	IC50 [4]	IC50 [5]	Activity [6]	Activity [7]	IC50 [8]
COc1cccc(-c2cc(N(C)Cc3ccc4c(c3)OCO4)nc(N)n2)c1	0.035 µM	0.03 µM	0.02 µM	0.04 µM	0.12 µM	–	–	–
COc1cccc(-c2cc(NCc3ccc4c(c3)OCO4)ncn2)c1	15.8 µM	12.5 µM	30.8 µM	8.63 µM	22.8 µM	Active	Dose-Dependent Effect	–
COc1cccc(-c2cc(N)nc(NCc3ccc4c(c3)OCO4)c2)c1	37.5 µM	20.2 µM	48.6 µM	19.3 µM	26.5 µM	inactive	inactive	–
COc1cccc(-c2cc(NCc3ccc(OC(F)(F)F)cc3)nc(N)n2)c1	0.26 µM	0.28 µM	0.43 µM	0.26 µM	0.59 µM	–	–	–
COc1ccc(-c2cc(NCc3ccc4c(c3)OCO4)nc(N)n2)cn1	0.82 µM	0.19 µM	0.2 µM	0.12 µM	1.25 µM	–	–	–
COc1cccc(-c2cc(NCc3ccccc3)nc(N)n2)c1	0.92 µM	0.36 µM	0.44 µM	0.27 µM	0.85 µM	–	Dose-Dependent Effect	–
Nc1nc(NCc2ccc3c(c2)OCO3)cc(-c2ccncc2)n1	> 2 µM	> 2 µM	> 2 µM	> 2 µM	> 2 µM	–	–	–
CCOc1ccc(-c2cc(NCc3ccc4c(c3)OCO4)nc(N)n2)cc1	> 2 µM	> 2 µM	> 2 µM	> 2 µM	> 2 µM	–	–	–
CCN(Cc1ccc2c(c1)OCO2)c1cc(-c2cccc(OC)c2)nc(N)n1	0.06 µM	0.03 µM	0.02 µM	0.04 µM	0.06 µM	–	Dose-Dependent Effect	–
Nc1nc(NCc2ccc3c(c2)OCO3)cc(-c2ccccc2)n1	0.91 µM	0.25 µM	0.46 µM	0.14 µM	1.91 µM	–	Dose-Dependent Effect	–
COc1cccc(-c2cc(NCc3ccc(F)cc3F)nc(N)n2)c1	0.18 µM	0.13 µM	0.36 µM	0.12 µM	0.54 µM	–	–	–
COc1cccc(-c2cc(NCc3ccc4c(c3)OCO4)nc(N)n2)c1	0.52 µM	0.19 µM	0.09 µM	0.1 µM	0.69 µM	–	–	–
CC(C)(C)c1ccc(-c2cc(NCc3ccc4c(c3)OCO4)nc(N)n2)cc1	> 2 µM	> 2 µM	> 2 µM	> 2 µM	> 2 µM	–	–	–
COc1cccc(-c2cc(NCc3ccc4ccccc4c3)nc(N)n2)c1	0.13 µM	0.13 µM	0.29 µM	0.32 µM	0.29 µM	–	–	–
CCCN(Cc1ccc2c(c1)OCO2)c1cc(-c2cccc(OC)c2)nc(N)n1	0.11 µM	0.08 µM	0.08 µM	0.08 µM	0.11 µM	–	–	–
N#Cc1cccc(-c2cc(NCc3ccc4c(c3)OCO4)nc(N)n2)c1	> 2 µM	> 2 µM	> 2 µM	> 2 µM	> 2 µM	–	–	–
COc1cccc2c1C(=O)c1c(O)c3c(c(O)c1C2=O)C[C@@](O)(C(=O)CO)C[C@@H]3O[C@H]1C[C@H](N)[C@H](O)[C@H](C)O1 [DOXORUBICIN HYDROCHLORIDE]	–	–	–	–	–	–	–	8.63 µM
Cc1ccc(-c2cc(NCc3ccc4c(c3)OCO4)nc(N)n2)cc1	0.42 µM	0.2 µM	0.17 µM	0.15 µM	0.45 µM	–	–	–
Nc1nc(NCc2ccc3c(c2)OCO3)cc(-c2ccc(Oc3ccccc3)cc2)n1	> 2 µM	> 2 µM	> 2 µM	> 2 µM	> 2 µM	–	–	–
Nc1nc(NCc2ccc3c(c2)OCO3)cc(-c2ccc(F)cc2)n1	> 2 µM	> 2 µM	> 2 µM	> 2 µM	> 2 µM	–	–	–
Nc1nc(NCc2ccc3c(c2)OCO3)cc(-c2ccoc2)n1	1.01 µM	0.56 µM	0.91 µM	0.28 µM	> 2 µM	–	–	–
Nc1nc(NCc2ccc3c(c2)OCO3)cc(-c2ccc3c(c2)OCCO3)n1	0.71 µM	0.24 µM	0.52 µM	0.17 µM	0.65 µM	–	–	–
Nc1nc(NCc2ccc3c(c2)OCO3)cc(-c2cccc3ccccc23)n1	0.77 µM	0.22 µM	0.5 µM	0.25 µM	0.96 µM	–	–	–
